Drawing on patent US10028931B2, “Synergistic compositions for treating microbial infections” (UNIVERSITY OF ROCHESTER, priority 2014, dated 2018), this text covers MIC and IC50 for 20 compounds.

In brackets after ≈: the same amount, converted by molar mass. Like-named read-outs stand apart in the source and are kept apart here.

Assay [1] concerns Staphylococcus aureus strain UAMS-1. As to the kind of experiment: Antimicrobial susceptibility testing (MIC, broth microdilution). The class given is cell-based. The settings on record: S. aureus UAMS-1, Mueller Hinton broth, 37° C. The protocol:
The RNase P inhibitors described herein were tested for antimicrobial activity toward Staphylococcus aureus strain UAMS-1. Individual wells of a 96-well microtiter plate were inoculated with ˜1×10^5 colony-forming units (CFU) of the indicated organism, containing two-fold increasing concentrations (from 0 to 256 μg mL^−1) of the indicated antibiotic or putative RnpA inhibitor, and incubated at 37° C. for 18 hours in Mueller Hinton broth. The MIC was defined as the lowest concentration of antibiotic in which there was no visible bacterial growth in the wells. Minimum bactericidal concentration testing was performed by enumerating the bacterial cells in each of the wells containing treatments at and above the MIC.

In another assay the target is T1, RnpA (Staphylococcus aureus, UniProt P0A0H5).
T1 sequence (P0A0H5 1-117): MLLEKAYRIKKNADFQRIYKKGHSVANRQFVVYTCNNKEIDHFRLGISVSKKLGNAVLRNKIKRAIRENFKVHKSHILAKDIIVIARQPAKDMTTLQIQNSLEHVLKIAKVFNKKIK
Nature of the assay: RnpA mRNA degradation activity assay. The class given is biochemical. The method, then:
The RNase P inhibitors described herein were tested for activity toward RnpA mRNA degradation activity. Either 1 μg of total S. aureus RNA or 1 pmol of in vitro synthesized spa mRNA was incubated with 20 pmol RnpA at 37° C. for 15 to 30 min in a reaction buffer (50 mM Tris-HCl pH 8.0, 2 mM NaCl, 2 mM MgCl2) in the absence or presence of the indicated compound. Reactions were stopped by adding an equal volume of 2×RNA loading dye (95% formamide, 0.025% SDS, 0.025% bromophenol blue, 0.025% xylene cyanol FF, 0.5 mM EDTA), run on a denaturing 1.0% agarose-0.66 M formaldehyde gel and stained with ethidium bromide. RNA substrates and corresponding degradation products were visualized using a FluorChem 5500 system (Alpha Innotech; San Leandro, Calif.). The inhibitory effects of the test compounds were measured using Image J densitometry software (National Institutes of Health; Bethesda, Md.) to quantify the signal intensity of the RNA band(s) in the negative control (RNA alone), positive control (RnpA+RNA+DMSO), and experimental samples (RnpA+RNA+test compound). The percent enzyme inhibition of test compounds was calculated using the following equation: Percent inhibition=[(experimental signal-positive control)/(negative control signal-positive control signal)]*100.

The target of assay [2] is T2, S. aureus RNase P (RnpA+rnpB) (Staphylococcus aureus, UniProt P0A0H5).
T2 sequence (P0A0H5 1-117): T1 sequence (P0A0H5 1-117)
Nature of the assay: RNase P activity assay (precursor tRNA processing). The class given is biochemical. Conditions: gel densitometry. The method, then: The RNase P inhibitors described herein were tested for activity toward RNase P. S. aureus RNase P activity assays were performed in low salt buffer (50 mM Tris-HCl pH 8.0, 5 mM MgCl2) or in high salt buffer (50 mM Tris-HCl pH 8.0, 100 mM MgCl2, 800 mM NH4Cl). For all reactions, ptRNATyr, tRNATyr, or rnpB RNA species were first denatured by heating to 95° C. for 3 minutes, and then slowly cooling the mixtures to room temperature. RNase P was reconstituted by mixing an equal molar ratio of RnpB and RnpA for 15 min at 37° C. Precursor tRNA processing reactions (20 μL) were performed by mixing 1.25 pmol RNase P (RnpA+rnpB), RnpA, or rnpB with an equal volume of 2× low salt buffer or 2× high salt buffer and 10 pmol ptRNATyr. Mixtures were incubated for 15 min at 37° C. Reactions were stopped by adding 20 μL 2×RNA loading dye (95% formamide, 0.025% SDS, 0.025% bromophenol blue, 0.025% xylene cyanol FF, 0.5 mM EDTA), and 30 μL of each sample was electrophoresed in a 7 M urea/8% polyacrylamide gel and was then stained with ethidium bromide (0.5 μg/ml). Where indicated, reactions were repeated in the presence of the indicated amount of putative RnpA inhibitors or dimethyl sulfoxide (DMSO). A FluorChem 5500 imaging system was used to visualize the RNA, and the relative abundance of the mature tRNATyr band in the positive control (RNase P+DMSO) or in samples containing test compounds was measured using Image J densitometry software (NIH). The percent RNase P activity was then calculated using the following calculation: (test compound tRNATyr signal/positive control tRNATyr signal)*100.

Setting [3] is: Staphylococcus aureus, UAMS1, 18 h, read-out: MIC.
Setting [4] is: RnpA mRNA degradation, gel densitometry, read-out: RnpA IC50.
Setting [5] is: ptRNATyr processing, read-out: RNase P IC50.

Take `CCOc1ccc(C(=O)NC(=S)NNC(=O)COc2ccc(C(C)CC)cc2)cc1` (stereo not drawn) [ST5528171]: the MIC in assay [1] (setting [3]) was 64 µg/mL (≈ 149 µM). Also, the IC50 is above 500 µM at RnpA (setting [4]) and 280 µM in assay [2] (setting [5]).

For the compound `Cc1ccc(OCc2ccc(C(=O)NNC(=S)NCC(C)C)o2)c(C)c1` [ST5607269], the MIC in assay [1] (setting [3]) is above 128 µg/mL. Moreover, the IC50 was 150 µM at RnpA (setting [4]) and above 500 µM in assay [2] (setting [5]).

For `Cc1ccoc1C(=O)NC(=S)NNC(=O)COc1ccc(C(C)C)cc1` [MC-190043], in assay [1] (setting [3]), the MIC was 32 µg/mL (≈ 85.2 µM). Moreover, the IC50 on RnpA (setting [4]) was found to be 20 µM; in assay [2] (setting [5]), 150 µM.

Regarding `O=C(Cc1ccc(Cl)cc1)NNC(=S)NC(=O)c1ccco1` [ST5642600], the MIC in assay [1] (setting [3]) came out at 16 µg/mL (≈ 47.4 µM). Besides, the IC50 (on RnpA (setting [4]); in assay [2] (setting [5])) was above 500 µM in each case.

On to `CC(C)COc1ccc(C(=O)NNC(=S)NC(=O)c2ccco2)cc1` [ST5529685], for which the minimum inhibitory concentration (MIC) in assay [1] (setting [3]) was 64 µg/mL (≈ 177 µM). The IC50 (on RnpA (setting [4]); in assay [2] (setting [5])) was above 500 µM each time.

Take `CC(C)C(=O)Nc1ccc(C(=O)NNC(=S)NC(=O)c2ccco2)cc1` [ST5525955]: the minimal inhibitory concentration (MIC) in assay [1] (setting [3]) is above 128 µg/mL. Besides, the IC50 is above 500 µM at RnpA (setting [4]) and 145 µM in assay [2] (setting [5]).

Regarding `CC(C)c1ccc(OCC(=O)NNC(=O)c2cc3ccccc3[nH]2)cc1` [MC-190051], the MIC in assay [1] (setting [3]) was 128 µg/mL (≈ 364 µM). Moreover, the 50% inhibitory concentration (IC50) turned out to be 45 µM on RnpA (setting [4]) and 2 µM in assay [2] (setting [5]).

On to `COc1ccccc1OCC(=O)NNC(=S)NC(=O)c1ccco1` [ST5682778], for which the MIC in assay [1] (setting [3]) is above 128 µg/mL. The half-maximal inhibitory concentration (IC50) (on RnpA (setting [4]); in assay [2] (setting [5])) was above 500 µM in each case.

As for `Cc1cc(Cl)ccc1OCC(=O)NNC(=S)NC(=O)/C=C/c1ccco1` [ST5524187], the MIC in assay [1] (setting [3]) was determined as 32 µg/mL (≈ 81.2 µM). In addition, the 50% inhibitory concentration (IC50) at RnpA (setting [4]) was found to be 175 µM; in assay [2] (setting [5]), 65 µM.

In the case of `Cc1ccc(C(=O)NNC(=O)COc2ccc(C(C)C)cc2)o1` [MC-190041], the minimal inhibitory concentration (MIC) in assay [1] (setting [3]) is above 256 µg/mL. For the same compound, the figures for the IC50 (on RnpA (setting [4]); in assay [2] (setting [5])) were 470 µM and 385 µM, respectively.

Regarding `COc1ccc2cc(C(=O)NNC(=O)COc3ccc(C(C)C)cc3)[nH]c2c1` [MC-190059], the MIC in assay [1] (setting [3]) is above 256 µg/mL. For the same compound, the IC50 at RnpA (setting [4]) was 150 µM; in assay [2] (setting [5]) it was 80 µM.

Turning to `O=C(NC(=S)NNC(=O)c1ccco1)c1ccc(F)c(F)c1` [ST5704832], the MIC in assay [1] (setting [3]) was above 128 µg/mL. The IC50 (on RnpA (setting [4]); in assay [2] (setting [5])) was above 500 µM each time.

For `O=C(NNC(=S)NC(=O)c1ccco1)c1cnccn1` [ST5641784], the MIC in assay [1] (setting [3]) was 32 µg/mL (≈ 110 µM). The IC50 (at RnpA (setting [4]); in assay [2] (setting [5])) was above 500 µM throughout.

On to `CC(C)c1ccc(OCC(=O)NNC(=O)c2ccco2)cc1` [MC-190034], for which the MIC in assay [1] (setting [3]) is above 256 µg/mL. Besides, the IC50 (on RnpA (setting [4]); in assay [2] (setting [5])) was above 500 µM each time.

`Cc1ccc(C(=O)NNC(=S)NC(=O)c2ccco2)cc1` [ST5682777] showed an MIC in assay [1] (18 hours) of 16 µg/mL (≈ 52.7 µM). The half-inhibitory concentration (IC50) is above 500 µM on RnpA (setting [4]) and 70 µM in assay [2] (setting [5]).

Consider `COc1ccccc1C(=O)NNC(=S)NC(=O)c1ccco1` [ST5525332], for which the MIC in assay [1] (Staphylococcus aureus, UAMS1, 18 hours, read-out: MIC) stood at 8 µg/mL (≈ 25.1 µM). The IC50 against RnpA is above 500 µM; in assay [2] (RNase P IC50, ptRNATyr processing) it was above 500 µM.

For `O=C(/C=C/c1ccccc1)NC(=S)NNC(=O)c1ccco1` [ST5254083], the MIC in assay [1] (setting [3]) was 16 µg/mL (≈ 50.7 µM). Besides, the IC50 stood at 90 µM at RnpA (setting [4]) and 75 µM in assay [2] (setting [5]).

`CC(C)c1ccc(OCC(=O)NNC(=O)Cc2ccco2)cc1` [MC-190038]: the MIC in assay [1] (setting [3]) is above 256 µg/mL. Besides, the IC50 (at RnpA (setting [4]); in assay [2] (setting [5])) was above 500 µM throughout.

For the compound `COc1ccc(OCC(=O)NNC(=S)NC(=O)c2ccc(Br)o2)cc1` [ST5523216], in assay [1] (setting [3]), the MIC came out at 32 µg/mL (≈ 74.7 µM). Further, the IC50 at RnpA (setting [4]) was above 500 µM; in assay [2] (setting [5]) it was 425 µM.

For `CC(C)c1ccc(OCC(=O)NNC(=O)c2cccs2)cc1` [MC-190035], in assay [1] (setting [3]), the minimal inhibitory concentration (MIC) was above 256 µg/mL. The IC50 (on RnpA (setting [4]); in assay [2] (setting [5])) was above 500 µM each time.

One may read the MIC as the smallest concentration in the dilution series that meets the test's criterion for growth inhibition. In general, IC50 refers to the midpoint of a concentration-inhibition curve.
